Consider five molecules from PMC9139161, “Phenolics from Chrozophora oblongifolia Aerial Parts as Inhibitors of α-Glucosidases and Advanced Glycation End Products: In-Vitro Assessment, Molecular Docking and Dynamics Studies” (Biology, 2022).

Each structure is given as a SMILES string.

The subject of test [1] is advanced glycation end products (AGEs) formation, BSA-fructose model. In words: AGEs formation inhibition, BSA-fructose assay. It counts as biochemical. To be noted: AGEs fluorescence, 72 h, 37 °C; read-out: BSA-Fructose Model IC50 (Mean ± SE). Here is the method: (§1) The isolated compounds were prepared at final concentrations of 500 µM in DMSO in the BSA-fructose assay, and 1000 µM in all other AGEs assays. Compounds that exceeded 50% inhibition at this concentration were serially diluted to determine their IC50. All tests were conducted using quercetin (positive control).
According to the previous report, the inhibition test for AGE formation was assessed using the BSA-fructose model. Briefly, BSA (50 mg/mL) and fructose (1.25 M) (in 200 mM phosphate buffer, pH 7.4, with 0.02% sodium azide) were incubated with Sample/blank in the dark for 72 h at 37 °C, (1:1:1 by volume). On a microplate reader (Fluostar Omega BMG Labtech, Ortenberg, Germany), fluorescent AGEs were detected using excitation and emission wavelengths of 355 nm and 460 nm, respectively. Triplicates of all experiments were performed, and the percentage of AGEs inhibition was calculated.

The next test in a line: DPPH assay. The settings on record: read-out: DPPH assay IC50 (Mean ± SE). Here is the method:
Isolated compounds were prepared in final concentrations of 1000 µM in DMSO. Compounds that exceeded 50% inhibition at this concentration were serially diluted to determine their IC50. Ascorbic acid was used as a positive control, prepared in a concentration of 100 µM in water from which six concentrations were prepared to calculate its IC50. The method is based on the reduction of free radical of 2,2-diphenyl-1-picrylhydrazyl (DPPH). Briefly, in a 96-well plate, 20 μL of the isolated compound was incubated for 20 min in the absence of light with 180 μL of DPPH reagent (100 μM). The reduction of intensity in the color of DPPH was assessed on a microplate reader (TECAN, Männedorf, Switzerland) at 540 nm (Supplementary Table S2).
(DPPH is a stable violet radical that fades when it is reduced.)

The target in test [2] is T1, porcine pancreatic lipase type II (Sus scrofa, UniProt P00591).
T1 construct: purchased sigma Aldrich L3126
T1 sequence (P00591 1-450): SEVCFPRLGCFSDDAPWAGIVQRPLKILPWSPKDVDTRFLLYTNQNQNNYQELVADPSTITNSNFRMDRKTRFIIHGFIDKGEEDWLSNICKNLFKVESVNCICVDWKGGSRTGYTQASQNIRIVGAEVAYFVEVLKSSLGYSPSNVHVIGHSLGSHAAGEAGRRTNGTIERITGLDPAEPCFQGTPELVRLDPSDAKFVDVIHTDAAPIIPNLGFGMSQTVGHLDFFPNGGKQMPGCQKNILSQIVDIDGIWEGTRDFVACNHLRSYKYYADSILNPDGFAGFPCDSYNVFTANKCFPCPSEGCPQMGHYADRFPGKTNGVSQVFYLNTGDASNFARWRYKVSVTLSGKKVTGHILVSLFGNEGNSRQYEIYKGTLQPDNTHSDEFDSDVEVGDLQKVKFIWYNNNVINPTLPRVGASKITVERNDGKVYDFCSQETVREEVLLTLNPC
As to the kind of experiment: Pancreatic lipase inhibition (p-NPD substrate). It counts as biochemical. To be noted: for IC50: porcine pancreatic lipase, p-NPD substrate, read-out: Pancreatic lipase IC50 (Mean ± SE). Here is the method:
The inhibition of pancreatic lipase activity was assessed using p-nitrophenyl dodecanoate (p-NPD, Sigma-Aldrich, St. Louis, MO, USA cat#N0252) as substrate and porcine pancreatic lipase type II (PPL, sigma Aldrich, cat#L3126) which was described previously with slight modification. Solutions of the provided compounds were prepared in final concentrations of 50 µM in 5% DMSO. […] In a Tris-HCl buffer (100 mM, pH 8); 50 μL of PPL (1 mg/mL) was incubated with 25 μL of samples/blank for 10 min at 37 °C. Then, 10 μL of solution p-NPD (10 mM, in isopropanol) was added followed by dilution of the final volume to 200 μL with Tris-HCl buffer. The mixture was incubated for 20 min at 37 °C and absorbance was then measured at 405 nm on a TECAN microplate reader (Männedorf, Switzerland). After that, the percentage of lipase inhibition was assessed (Supplementary Table S1 and Figure S1).

Another test is described as follows: ABTS assay. The settings on record: ascorbic acid equivalents; mean ± SD, n = 3. Here is the method:
DMSO was used for the preparation of 0.5 mg/mL concentrations of isolated compounds, meanwhile, the positive control (ascorbic acid) was used to prepare a stock solution of 1000 µM in water; from which seven concentrations were prepared including 7.812, 15.625, 31.25, 62.5, 125, 250 and 500 µM to construct the concentration-response curve (Supplementary Data Figure S2). The activity of the tested compounds to scavenge the free radicals of ABTS (2,2′-azino-bis (3-ethylbenzothiazoline-6-sulfonic acid)) was assessed according to the methodology reported previously with slight modifications.
Five milliliters of aqueous solution (7 mM) of ABTS was mixed with 88 µL potassium persulfate (140 mM) and the mixture was kept in the dark for 16 h to produce ABTS radical cation (ABTS^•+). Then methanol was added to the reaction mixture to dilute the formed ABTS^•+ solution to an absorbance of 0.700 (1:50) at 690 nm.
Ten microliters of the tested compound were incubated with 190 μL of ABTS^•+ solution in a 96-well plate for thirty minutes in the dark and the absorbance was measured later using a microplate reader (TECAN, Männedorf, Switzerland) at 690 nm. Data are represented as means (n = 3) ± SD and the antioxidant effect of the tested compounds was calculated as µM Ascorbic acid equivalents by substitution in the linear regression equation (Supplementary Figure S2).

Test [3] has as its system advanced glycation end products (AGEs) formation, arginine-methylglyoxal model. In words: AGEs formation inhibition, arginine-methylglyoxal assay. It counts as biochemical. The settings on record: AGEs fluorescence, 72 h, 37 °C; read-out: Arginine-Methylglyoxal Model IC50 (Mean ± SE). As for the experimental part:
as §1
The determination of the inhibitory effect of the isolated compounds on the formation of AGEs in the arginine methylglyoxal model was used as described previously with slight modification. Briefly, in black 96-microwell plates, a sample was incubated for 72 h at 37 °C in the dark with methylglyoxal (53.3 mM, in distilled water) and 106.6 mM arginine (in 200 mM phosphate buffer, pH 7.4, with 0.02% sodium azide), (1:1:1 v/v/v). On a microplate reader (Fluostar Omega/BMG Labtech/Germany), fluorescent AGEs were detected using excitation and emission wavelengths of 355 nm and 460 nm, respectively. Triplicates of all experiments were performed.

One may read the IC50 as the concentration needed to halve the response being measured. In the case of `O=C(OC[C@H]1O[C@H](OC(=O)c2cc(O)c(O)c(O)c2)[C@H](O)[C@@H](OC(=O)c2cc(O)c(O)c(O)c2)[C@@H]1O)c1cc(O)c(O)c(O)c1` (stereo in doubt) [Compound 5, 1,3,6-trigalloyl glucose], the IC50 in test [1] was 35 µM; in the test “DPPH assay” it was 4 µM; in test [2], above 50 µM; in test [3], 226 µM. Further, in test [2] (till 50 μM concentration), the “Pancreatic lipase inhibitory effect (in words)” value was “did not show any inhibitory effect”. Besides, the ABTS in the test “ABTS assay” was determined as 9.640±0.061 mM AAE/mg.
The inhibition is the relative decrease from the control value, in per cent. High values mean a strong effect, low ones a weak effect. Turning to `O=c1cc(-c2ccc(O)cc2)oc2cc(O[C@@H]3O[C@H](CO)[C@@H](O)[C@H](O)[C@H]3O)cc(O)c12` [Compound 1, apeginin-7-O-β-D-glucoside], the IC50 is 303 µM in test [1], 366 µM in the test “DPPH assay”, above 50 µM in test [2] and 474 µM in test [3]. Also, in test [2], the inhibition at 50 µM is 4.48%. The ABTS in “ABTS assay” is on record as 0.702±0.050 mM AAE/mg.
For the molecule `O=C(O)[C@H]1O[C@@H](Oc2c(-c3ccc(O)c(O)c3)oc3cc(O)cc(O)c3c2=O)[C@H](O)[C@@H](O)[C@@H]1O` [Compound 2, quercetin-3-O-β-D-glucuronic acid], the IC50 is 262 µM in test [1], 29 µM in “DPPH assay”, above 50 µM in test [2] and 1140 µM in test [3]. Besides, in test [2], the inhibition at 50 µM stood at 1.92%. Besides, in the test “ABTS assay”, the ABTS turned out to be 0.646 ±0.072 mM AAE/mg.
Regarding `O=C(O)[C@H]1O[C@@H](Oc2c(-c3ccc(O)c(O)c3)oc3cc(O)cc(O)c3c2=O)[C@H](O)[C@@H](O)[C@H]1O` [Compound 3, quercetin-3-O-β-D-galacturonic acid], the IC50 was 500 µM in test [1], 123 µM in the test “DPPH assay”, above 50 µM in test [2] and above 1200 µM in test [3]. This molecule also came in with an inhibition at 50 µM in test [2] of 2.26%. Moreover, the ABTS in “ABTS assay” is on record as 0.210 ±0.012 mM AAE/mg.
Regarding `C[C@@H]1O[C@@H](OC[C@H]2O[C@@H](Oc3c(-c4ccc(O)c(O)c4)oc4cc(O)cc(O)c4c3=O)[C@H](O)[C@@H](O)[C@@H]2O)[C@H](O)[C@H](O)[C@H]1O` [Compound 4, rutin], the IC50 in test [1] is 37 µM; in “DPPH assay”, 19 µM; in test [2], above 50 µM; in test [3], 303 µM. Besides, the ABTS in “ABTS assay” is recorded as 1.972±0.059 mM AAE/mg.
